Measured values taken from article PMC8070514, “Antibacterial and Antibiofilm Activities of Novel Antimicrobial Peptides against Multidrug-Resistant Enterotoxigenic Escherichia Coli” (International Journal of Molecular Sciences, 2021).
Ends that are not written are not given here.

How the values were obtained:
[1] = test system: Acinetobacter baumannii biofilms; settings: 32 and 64 μg/mL; cited from earlier work
From the text: Biofilm is a microbial community that adheres to the surface of various substances and encapsulates themselves in an autologous extracellular matrix. It is a critical issue to manage biofilms in clinical treatment. The matrix of the biofilm plays an important role in the mechanism of resistance to antibiotics, which constitutes a barrier to delay or prevent the interaction of antibiotics with microbial cells, depending on the extracellular polymeric substances and the charge of antimicrobial agents. The latter can be isolated or repelled, thereby reducing its effect on biofilms [[36],[3 ...

[2] = Hemolytic activity, minimal hemolysis concentration (MHC); type: cell-based; settings: method not described
[3] = test system: MDR ETEC (multidrug-resistant enterotoxigenic Escherichia coli); settings: MDR ETEC clinical isolate; 96-well microtiter plates, 10^4 CFU/mL inoculum, 48 h at 37 °C, absorbance 600 nm; lowest concentration that completely inhibits visible growth
Description: (§1) The MDR ETEC strain used in this study was a clinical isolate kindly provided by our co-author, Dr. Hui-Wen Chang from Department of Veterinary Medicine and Graduate Institute of Molecular and Comparative Pathobiology, School of Veterinary Medicine, National Taiwan University. […] Glycerol stocks (20%, v/v) were maintained at −86 °C for long-term storage.
Cultures were examined for growth after 48 h incubation at 37 °C, and the absorbance at 600 nm was measured.

[4] = test system: MDR ETEC strain (clinical isolate); experiment: Resistance of the MDR ETEC strain to conventional antibiotics; type: cell-based, Escherichia coli; settings: method not given
Description: as §1

[5] = test system: intestinal porcine epithelial cell line-J2 (IPEC-J2); experiment: Cell viability (MTT) assay, IPEC-J2; type: cell-based; settings: IPEC-J2, 24 h exposure
Description: (§2) The IPEC-1 and IPEC-J2 cell lines were kindly provided by Dr. Je-Ruei Liu from Institute of Biotechnology and Department of Animal Science and Technology, National Taiwan University. The culture conditions and protocols were according to Koh et al. with slight modifications. Both IPEC-1 and IPEC-J2 cells were seeded on 9-cm cell culture dishes and were cultured and maintained in Dulbecco’s modified Eagle medium (DMEM)/nutrient mixture F-12 (GeneDireX, Taipei, Taiwan) supplemented with 10% fetal bovine serum (FBS; Hyclone, Cytiva, Washington DC, USA). The cultures were maintained in a humidified incubator in an atmosphere of 5% CO2 at 37 °C. After 4 to 5 days of culturing, both cell lines became confluent. Cell monolayers were washed with 3–5 mL Dulbecco’s phosphate buffered saline (DPBS, Amresco, Solon, OH, USA) and trypsinized with 1× trypsin-EDTA. The detached cells were pelleted at 200× g for 5 min, re-suspended in antibiotic-free medium, and used for subsequent adherence assays. […]
(§3) The viability of both IPEC-1 and IPEC-J2 cells after treated with AMP Q4-15a-1 was evaluated using 3-(4,5-dimethylthiazol-2-yl)-2,5-diphenyltetrazolium bromide (MTT, Amresco, Solon, OH, USA) assays performed in triplicate in three independent experiments. […] Absorbance at 570 nm of the maximum was detected by a multimode microplate reader SpectraMax M2 (Molecular Devices, San Jose, CA, USA). […]

[6] = test system: intestinal porcine epithelial cell line-1 (IPEC-1); experiment: Cell viability (MTT) assay, IPEC-1; type: cell-based; settings: IPEC-1, 24 h exposure
Description: as §2, §3

Compound | Susceptibility of the MDR ETEC strain [4] | other results
LL37 | – | Effect on two Acinetobacter baumannii biofilms [1]: inhibitory effect
KKFATIAKKFINWLW-NH2 [Peptide Q4-15a-2] | – | MHC (minimal hemolysis concentration) [2]: 16 µg/mL; MIC [3]: 2 µg/mL
CN(C)c1ccc(O)c2c1C[C@H]1C[C@H]3[C@H](N(C)C)C(O)=C(C(N)=O)C(=O)[C@@]3(O)C(O)=C1C2=O [minocycline] | resistant | –
CCn1cc(C(=O)O)c(=O)c2cc(F)c(N3CCNCC3)cc21 [norfloxacin] | resistant | –
GANAAKKFATIAKKFINYLW [GW-Q4] | – | MHC (minimal hemolysis concentration) [2]: 128 µg/mL; MIC [3]: 32 µg/mL
CC1=C(C(=O)O)N2C(=O)[C@@H](NC(=O)[C@H](N)c3ccc(O)cc3)[C@H]2SC1 [cefadroxil] | resistant | –
GANAAKKFATIAKKFINYLW-NH2 [GW-Q4a] | – | MHC (minimal hemolysis concentration) [2]: 32 µg/mL; MIC [3]: 8 µg/mL
CC(C)(O/N=C(\C(=O)N[C@@H]1C(=O)N2C(C(=O)[O-])=C(C[n+]3ccccc3)CS[C@H]12)c1csc(N)n1)C(=O)O [ceftazidime] | resistant | –
CC(=O)OCC1=C(C(=O)O)N2C(=O)[C@@H](NC(=O)Cc3cccs3)[C@H]2SC1 [cephalothin] | resistant | –
NC[C@H]1O[C@H](O[C@H]2[C@H](O)[C@@H](O[C@H]3O[C@H](CO)[C@@H](O)[C@H](N)[C@H]3O)[C@H](N)C[C@@H]2N)[C@H](O)[C@@H](O)[C@@H]1O [kanamycin] | resistant | –
O=C(N[C@H](CO)[C@H](O)c1ccc([N+](=O)[O-])cc1)C(Cl)Cl [chloramphenicol] | resistant | –
KKFATIAKKFINKLW-NH2 [Peptide Q4-15a-1] | – | MHC (minimal hemolysis concentration) [2]: 256 µg/mL; IC20 (cell viability, MTT) [5]: around 100 μg/mL; IC20 (cell viability, MTT) [6]: around 100 μg/mL; MIC [3]: 4 µg/mL
C[C@H]1c2cccc(O)c2C(=O)C2=C(O)[C@]3(O)C(=O)C(C(N)=O)=C(O)[C@@H](N(C)C)[C@@H]3[C@@H](O)[C@@H]21 [doxycycline] | resistant | –
penicillin | resistant | –
KKFATIAKKFINYLW-NH2 [Peptide Q4-15a] | – | MHC (minimal hemolysis concentration) [2]: 16 µg/mL; MIC [3]: 4 µg/mL
CCN1CCN(C(=O)N[C@@H](C(=O)N[C@@H]2C(=O)N3[C@@H]2SC(C)(C)[C@@H]3C(=O)O)c2ccccc2)C(=O)C1=O [piperacillin] | resistant | –

Compound | Susceptibility of the MDR ETEC strain [4] | other results
KKFATIAKKFINYLW [Peptide Q4-15] | – | MHC (minimal hemolysis concentration) [2]: 128 µg/mL; MIC [3]: 8 µg/mL
NC[C@H]1O[C@H](O[C@H]2[C@H](O)[C@@H](O[C@H]3O[C@H](CO)[C@@H](O)[C@H](N)[C@H]3O)[C@H](N)C[C@@H]2N)[C@H](N)C[C@@H]1O [tobramycin] | resistant | –
CNC(C)C1CCC(N)C(OC2C(N)CC(N)C(OC3OCC(C)(O)C(NC)C3O)C2O)O1 (stereo not drawn) [gentamicin] | resistant | –
CCN1CCN(c2cc3c(cc2F)c(=O)c(C(=O)O)cn3C2CC2)CC1 [enrofloxacin] | resistant | –
CCn1cc(C(=O)O)c(=O)c2ccc(C)nc21 [nalidixic acid] | resistant | –
O=C1CN(/N=C/c2ccc([N+](=O)[O-])o2)C(=O)N1 [nitrofurantoin] | moderately susceptible | –
KKFATIAKKFINKLW [Peptide Q4-15-1] | – | MHC (minimal hemolysis concentration) [2]: 256 µg/mL; MIC [3]: 8 µg/mL
[H]/N=C(/N)N[C@H]1[C@H](O)[C@@H](O)[C@H](O[C@@H]2O[C@@H](C)[C@](O)(C=O)[C@H]2O[C@@H]2O[C@@H](CO)[C@H](O)[C@@H](O)[C@@H]2NC)[C@@H](N/C(N)=N\[H])[C@@H]1O [streptomycin] | resistant | –
CO/N=C(\C(=O)N[C@@H]1C(=O)N2C(C(=O)O)=C(COC(N)=O)CS[C@H]12)c1ccco1 [cefuroxime] | resistant | –
C=CC1=C(C(=O)O)N2C(=O)[C@@H](NC(=O)/C(=N\OCC(=O)O)c3csc(N)n3)[C@H]2SC1 [cefixime] | resistant | –
CN(C)[C@@H]1C(O)=C(C(N)=O)C(=O)[C@@]2(O)C(O)=C3C(=O)c4c(O)cccc4[C@@](C)(O)[C@H]3C[C@@H]12 [tetracycline] | resistant | –
CC1(C)S[C@@H]2[C@H](NC(=O)[C@H](N)c3ccccc3)C(=O)N2[C@H]1C(=O)O [ampicillin] | resistant | –
CC1COc2c(N3CCN(C)CC3)c(F)cc3c(=O)c(C(=O)O)cn1c23 (stereo not drawn) [ofloxacin] | resistant | –
polymyxin B | moderately susceptible | –
KKFATIAKKFINWLW [Peptide Q4-15-2] | – | MHC (minimal hemolysis concentration) [2]: 32 µg/mL; MIC [3]: 4 µg/mL
CC1CCc2cc(F)cc3c(=O)c(C(=O)O)cn1c23 (stereo not drawn) [flumequine] | resistant | –
